Assay [1] addresses Epithelial discoidin domain-containing receptor 1 (Homo sapiens, UniProt Q08345).
Assay [2] has as its target T1, Cysteine--tRNA ligase, cytoplasmic (Homo sapiens, UniProt P49589).
T1 sequence (P49589 whole entry): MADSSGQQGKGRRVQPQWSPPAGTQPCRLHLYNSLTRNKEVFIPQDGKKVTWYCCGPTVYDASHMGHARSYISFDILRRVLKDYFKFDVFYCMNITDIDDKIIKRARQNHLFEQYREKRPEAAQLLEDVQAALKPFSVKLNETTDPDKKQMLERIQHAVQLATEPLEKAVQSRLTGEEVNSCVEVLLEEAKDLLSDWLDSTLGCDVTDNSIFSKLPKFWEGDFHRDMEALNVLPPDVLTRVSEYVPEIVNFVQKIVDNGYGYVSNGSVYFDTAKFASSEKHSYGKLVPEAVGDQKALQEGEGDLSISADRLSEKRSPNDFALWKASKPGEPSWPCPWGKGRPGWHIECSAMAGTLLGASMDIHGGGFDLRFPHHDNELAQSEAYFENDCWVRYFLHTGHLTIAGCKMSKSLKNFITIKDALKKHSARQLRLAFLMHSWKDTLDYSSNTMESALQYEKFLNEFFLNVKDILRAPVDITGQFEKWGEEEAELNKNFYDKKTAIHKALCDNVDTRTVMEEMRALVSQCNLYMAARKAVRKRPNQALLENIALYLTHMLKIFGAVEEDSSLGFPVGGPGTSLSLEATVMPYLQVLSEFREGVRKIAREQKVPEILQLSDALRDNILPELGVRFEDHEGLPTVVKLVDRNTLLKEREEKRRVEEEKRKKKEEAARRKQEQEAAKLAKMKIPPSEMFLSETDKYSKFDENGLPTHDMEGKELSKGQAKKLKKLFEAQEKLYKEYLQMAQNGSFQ

A further assay concerns the target T2, dCTP pyrophosphatase 1 (Homo sapiens, UniProt Q9H773).
T2 sequence (Q9H773 whole entry): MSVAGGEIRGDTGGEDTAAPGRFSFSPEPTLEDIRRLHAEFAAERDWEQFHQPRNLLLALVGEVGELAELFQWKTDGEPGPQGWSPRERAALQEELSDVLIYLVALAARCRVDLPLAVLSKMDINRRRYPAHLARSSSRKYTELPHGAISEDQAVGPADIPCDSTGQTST

For a further assay, the target named is T3, ADP/ATP translocase 3 (Homo sapiens, UniProt P12236).
T3 sequence (P12236 whole entry): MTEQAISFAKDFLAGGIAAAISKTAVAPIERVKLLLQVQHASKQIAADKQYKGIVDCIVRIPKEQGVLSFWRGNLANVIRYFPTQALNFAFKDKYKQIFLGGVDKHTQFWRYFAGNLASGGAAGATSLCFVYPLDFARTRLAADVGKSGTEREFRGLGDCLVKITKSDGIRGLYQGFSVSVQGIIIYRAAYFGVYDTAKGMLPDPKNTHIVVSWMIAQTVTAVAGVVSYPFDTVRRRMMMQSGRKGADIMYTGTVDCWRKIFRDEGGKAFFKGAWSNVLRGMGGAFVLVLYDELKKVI

Assay [3] has as its target Casein kinase I isoform gamma-1 (Homo sapiens, UniProt Q9HCP0).
Assay [4] concerns the target Serine/threonine-protein kinase N2 (Homo sapiens, UniProt Q16513).
In assay [5] the target is T4, Phenylalanine--tRNA ligase beta subunit (Homo sapiens, UniProt Q9NSD9).
T4 sequence (Q9NSD9 whole entry): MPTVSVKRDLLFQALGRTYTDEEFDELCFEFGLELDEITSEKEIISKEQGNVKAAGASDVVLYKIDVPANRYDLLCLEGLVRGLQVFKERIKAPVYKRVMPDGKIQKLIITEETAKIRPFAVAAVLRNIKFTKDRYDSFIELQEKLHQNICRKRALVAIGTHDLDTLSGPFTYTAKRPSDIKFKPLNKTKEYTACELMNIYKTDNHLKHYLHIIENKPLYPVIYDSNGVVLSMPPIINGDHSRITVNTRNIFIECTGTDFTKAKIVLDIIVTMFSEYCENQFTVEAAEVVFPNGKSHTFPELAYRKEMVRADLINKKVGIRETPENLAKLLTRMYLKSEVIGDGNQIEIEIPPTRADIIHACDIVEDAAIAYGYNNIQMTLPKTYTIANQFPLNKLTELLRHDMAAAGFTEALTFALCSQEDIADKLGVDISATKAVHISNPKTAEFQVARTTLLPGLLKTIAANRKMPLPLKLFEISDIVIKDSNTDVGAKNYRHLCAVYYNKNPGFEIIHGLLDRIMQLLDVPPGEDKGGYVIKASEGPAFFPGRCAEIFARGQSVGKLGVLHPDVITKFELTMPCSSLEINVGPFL

Assay [6] concerns the target Serine/threonine-protein kinase 26 (Homo sapiens, UniProt Q9P289).
Assay [7] concerns the target Cyclin-dependent kinase 3 (Homo sapiens, UniProt Q00526).
Assay [8] addresses Serine/threonine-protein kinase N1 (Homo sapiens, UniProt Q16512).

The structures appear in SMILES notation. The source made the active and inactive calls.
Further: in the data inactive means no Kd found up to 30 µM.

Chain of Epithelial discoidin domain-containing receptor 1 (Q08345 whole entry, the tested form may be a part): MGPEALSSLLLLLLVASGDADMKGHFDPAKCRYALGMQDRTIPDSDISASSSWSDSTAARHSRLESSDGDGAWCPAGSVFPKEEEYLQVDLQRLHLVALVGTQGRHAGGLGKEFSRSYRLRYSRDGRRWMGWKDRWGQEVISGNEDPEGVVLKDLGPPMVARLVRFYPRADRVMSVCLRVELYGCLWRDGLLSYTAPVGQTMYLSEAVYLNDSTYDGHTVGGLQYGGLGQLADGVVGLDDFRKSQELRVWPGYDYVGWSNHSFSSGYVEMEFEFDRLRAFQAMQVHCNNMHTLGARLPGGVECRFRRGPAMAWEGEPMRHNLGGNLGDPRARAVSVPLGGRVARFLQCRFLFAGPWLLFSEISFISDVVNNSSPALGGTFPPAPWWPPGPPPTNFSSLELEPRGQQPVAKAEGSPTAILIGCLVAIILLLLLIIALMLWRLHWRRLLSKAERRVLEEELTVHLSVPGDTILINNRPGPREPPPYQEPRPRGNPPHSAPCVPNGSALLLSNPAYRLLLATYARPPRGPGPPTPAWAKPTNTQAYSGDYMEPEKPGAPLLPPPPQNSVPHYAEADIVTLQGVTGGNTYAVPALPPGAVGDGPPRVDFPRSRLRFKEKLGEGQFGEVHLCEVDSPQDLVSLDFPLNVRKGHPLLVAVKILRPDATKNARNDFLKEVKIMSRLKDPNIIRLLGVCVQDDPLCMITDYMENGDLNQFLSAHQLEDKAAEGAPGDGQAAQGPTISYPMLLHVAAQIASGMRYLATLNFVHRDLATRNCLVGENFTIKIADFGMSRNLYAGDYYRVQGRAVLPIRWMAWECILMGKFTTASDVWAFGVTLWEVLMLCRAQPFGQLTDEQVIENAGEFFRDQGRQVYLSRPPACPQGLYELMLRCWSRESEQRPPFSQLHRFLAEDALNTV
Chain of Cyclin-dependent kinase 3 (Q00526 whole entry): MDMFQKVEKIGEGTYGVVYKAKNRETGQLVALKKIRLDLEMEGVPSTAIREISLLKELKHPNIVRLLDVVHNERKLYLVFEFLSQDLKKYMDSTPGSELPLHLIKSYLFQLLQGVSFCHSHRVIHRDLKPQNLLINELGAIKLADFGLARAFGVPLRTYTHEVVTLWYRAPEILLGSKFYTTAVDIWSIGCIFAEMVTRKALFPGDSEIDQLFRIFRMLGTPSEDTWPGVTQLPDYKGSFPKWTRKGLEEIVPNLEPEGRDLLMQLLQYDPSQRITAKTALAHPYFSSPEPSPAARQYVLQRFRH
Chain of Serine/threonine-protein kinase N1 (Q16512 whole entry): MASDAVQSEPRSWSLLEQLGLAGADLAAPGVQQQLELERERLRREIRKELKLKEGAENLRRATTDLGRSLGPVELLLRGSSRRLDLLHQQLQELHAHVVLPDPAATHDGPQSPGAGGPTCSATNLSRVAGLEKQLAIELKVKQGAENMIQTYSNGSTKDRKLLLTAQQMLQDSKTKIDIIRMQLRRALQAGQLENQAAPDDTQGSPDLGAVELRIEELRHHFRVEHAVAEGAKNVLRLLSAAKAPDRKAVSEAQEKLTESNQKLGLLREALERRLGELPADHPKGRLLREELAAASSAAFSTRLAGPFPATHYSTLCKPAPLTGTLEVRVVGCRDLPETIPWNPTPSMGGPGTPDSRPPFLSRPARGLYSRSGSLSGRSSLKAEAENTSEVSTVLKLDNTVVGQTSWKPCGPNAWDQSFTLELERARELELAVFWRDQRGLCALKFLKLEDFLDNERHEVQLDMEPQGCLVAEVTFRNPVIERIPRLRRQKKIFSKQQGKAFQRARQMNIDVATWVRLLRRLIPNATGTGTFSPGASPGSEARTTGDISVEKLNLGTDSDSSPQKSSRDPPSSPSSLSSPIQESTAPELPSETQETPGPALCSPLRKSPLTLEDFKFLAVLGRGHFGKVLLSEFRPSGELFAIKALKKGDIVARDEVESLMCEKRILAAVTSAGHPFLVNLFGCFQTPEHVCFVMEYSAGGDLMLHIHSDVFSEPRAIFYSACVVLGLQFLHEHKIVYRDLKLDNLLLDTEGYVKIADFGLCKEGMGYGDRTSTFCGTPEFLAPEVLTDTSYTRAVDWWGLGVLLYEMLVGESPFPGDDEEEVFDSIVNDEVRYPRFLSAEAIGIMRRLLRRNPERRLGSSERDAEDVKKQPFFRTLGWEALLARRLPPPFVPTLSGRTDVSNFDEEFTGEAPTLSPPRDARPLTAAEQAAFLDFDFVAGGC
Chain of Casein kinase I isoform gamma-1 (Q9HCP0 whole entry, canonical isoform): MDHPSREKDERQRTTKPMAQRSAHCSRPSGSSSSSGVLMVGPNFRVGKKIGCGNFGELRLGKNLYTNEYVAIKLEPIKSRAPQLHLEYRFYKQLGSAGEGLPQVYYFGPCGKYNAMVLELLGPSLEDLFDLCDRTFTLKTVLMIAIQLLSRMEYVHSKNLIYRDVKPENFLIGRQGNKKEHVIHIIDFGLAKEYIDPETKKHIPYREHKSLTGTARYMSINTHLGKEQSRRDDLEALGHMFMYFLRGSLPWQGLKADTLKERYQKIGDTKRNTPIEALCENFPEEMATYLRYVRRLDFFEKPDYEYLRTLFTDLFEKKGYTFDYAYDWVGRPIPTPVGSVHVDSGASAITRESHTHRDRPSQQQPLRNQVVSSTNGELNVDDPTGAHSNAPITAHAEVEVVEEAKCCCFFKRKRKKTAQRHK
Chain of Serine/threonine-protein kinase 26 (Q9P289 whole entry): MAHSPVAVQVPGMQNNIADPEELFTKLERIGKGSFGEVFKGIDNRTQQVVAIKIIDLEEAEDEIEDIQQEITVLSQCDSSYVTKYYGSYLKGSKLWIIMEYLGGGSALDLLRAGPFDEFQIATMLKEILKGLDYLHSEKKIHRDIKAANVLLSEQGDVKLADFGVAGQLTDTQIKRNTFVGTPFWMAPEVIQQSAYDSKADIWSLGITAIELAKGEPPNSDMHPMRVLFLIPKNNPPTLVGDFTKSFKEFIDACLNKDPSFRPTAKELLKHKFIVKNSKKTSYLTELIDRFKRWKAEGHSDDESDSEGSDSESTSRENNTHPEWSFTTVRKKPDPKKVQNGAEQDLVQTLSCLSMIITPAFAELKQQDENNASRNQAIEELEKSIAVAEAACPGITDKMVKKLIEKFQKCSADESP
Chain of Serine/threonine-protein kinase N2 (Q16513 whole entry): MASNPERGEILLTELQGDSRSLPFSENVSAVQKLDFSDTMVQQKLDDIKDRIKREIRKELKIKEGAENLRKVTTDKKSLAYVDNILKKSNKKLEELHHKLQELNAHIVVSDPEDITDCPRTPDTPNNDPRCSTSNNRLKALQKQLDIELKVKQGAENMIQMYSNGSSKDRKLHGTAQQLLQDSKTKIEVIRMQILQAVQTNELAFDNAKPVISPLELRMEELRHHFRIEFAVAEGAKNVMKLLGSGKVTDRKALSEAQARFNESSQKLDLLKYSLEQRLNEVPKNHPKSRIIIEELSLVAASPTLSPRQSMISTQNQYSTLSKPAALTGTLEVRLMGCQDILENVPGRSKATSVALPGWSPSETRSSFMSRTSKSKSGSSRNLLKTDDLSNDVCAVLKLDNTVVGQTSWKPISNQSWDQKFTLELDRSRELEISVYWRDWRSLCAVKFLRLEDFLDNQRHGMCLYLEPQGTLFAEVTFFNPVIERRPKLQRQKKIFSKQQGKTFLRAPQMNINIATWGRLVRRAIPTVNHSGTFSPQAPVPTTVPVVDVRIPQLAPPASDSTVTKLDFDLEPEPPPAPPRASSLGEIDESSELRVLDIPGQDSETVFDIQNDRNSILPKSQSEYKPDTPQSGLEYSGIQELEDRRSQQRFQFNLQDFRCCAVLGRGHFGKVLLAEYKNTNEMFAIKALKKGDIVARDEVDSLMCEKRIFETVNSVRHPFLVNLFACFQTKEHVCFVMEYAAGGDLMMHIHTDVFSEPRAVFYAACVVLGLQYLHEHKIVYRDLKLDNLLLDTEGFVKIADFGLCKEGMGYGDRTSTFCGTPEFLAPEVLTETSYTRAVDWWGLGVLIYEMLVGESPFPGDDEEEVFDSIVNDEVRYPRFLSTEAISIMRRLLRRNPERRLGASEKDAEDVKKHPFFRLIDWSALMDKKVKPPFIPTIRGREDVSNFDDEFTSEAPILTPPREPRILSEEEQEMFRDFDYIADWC

As for `CC[C@@H]1C(=O)N(C)c2cnc(Nc3ccc(C(=O)N[C@H]4CC[C@H](N5CCN(CC6CC6)CC5)CC4)cc3OC)nc2N1C(C)C` [VOLASERTIB], the Kd (in assay [1]; in assay [2]; at dCTP pyrophosphatase 1; on ADP/ATP translocase 3; in assay [3]; in assay [4]) was > 30 µM (inactive) in each case. Further, the Kd in assay [5], in assay [6], in [7] and in assay [8] was > 30 µM (inactive) each time.
On to `Cc1cc(-c2cc(O)ccc2Cl)cc2nnc(Nc3ccc(OCCN4CCCC4)cc3)nc12`, for which the equilibrium dissociation constant (Kd) (usually the concentration at which binding is half-saturated) in assay [1] is 0.003 µM (active); in [2] it was > 30 µM (inactive); on dCTP pyrophosphatase 1, > 30 µM (inactive); on ADP/ATP translocase 3, > 30 µM (inactive); in [3], > 30 µM (inactive); in assay [4] it was > 30 µM (inactive). Further, the Kd in assay [5], in assay [6], in assay [7] and in assay [8] was > 30 µM (inactive) each time.
For `OCCn1cc(-c2cnc3nnn(Cc4ccc5ncccc5c4)c3n2)cn1` [PF-04217903], the Kd (in assay [1]; in [2]; at dCTP pyrophosphatase 1; on ADP/ATP translocase 3; in assay [3]; in [4]) was > 30 µM (inactive) in each case. Besides, the Kd in assay [5], in assay [6], in assay [7] and in assay [8] was > 30 µM (inactive) throughout.
On to `CCn1c(=O)c(-c2cc[nH]n2)cc2c(C)nc(N)nc21` [VOXTALISIB], for which the Kd (in [1]; in assay [2]; on dCTP pyrophosphatase 1; on ADP/ATP translocase 3; in [3]; in assay [4]) was > 30 µM (inactive) throughout. Moreover, the Kd in [5], in [6], in assay [7] and in [8] was > 30 µM (inactive) each time.
In the case of `Cc1cc2c(F)c(Oc3ncnn4cc(OC[C@@H](C)OC(=O)[C@H](C)N)c(C)c34)ccc2[nH]1` [BRIVANIB ALANINATE], the Kd in assay [1] is 1.04 µM (active); in [2], > 30 µM (inactive); at dCTP pyrophosphatase 1 it was > 30 µM (inactive); at ADP/ATP translocase 3 it was > 30 µM (inactive); in [3], > 30 µM (inactive); in assay [4], > 30 µM (inactive). The Kd in [5], in [6], in assay [7] and in assay [8] was > 30 µM (inactive) throughout.
Take `CN1CCC(CNc2ccc3ncc(-c4cccc(OC(F)(F)F)c4)n3n2)CC1` [SGI-1776]: the Kd (in [1]; in [2]; on dCTP pyrophosphatase 1; at ADP/ATP translocase 3; in assay [3]; in [4]) was > 30 µM (inactive) throughout. For the same molecule, the Kd is > 30 µM (inactive) in assay [5], > 30 µM (inactive) in assay [6], > 30 µM (inactive) in assay [7] and 35.4 µM (active) in assay [8].
For the molecule `CC[C@H](Nc1ncnc2[nH]cnc12)c1nc2cccc(F)c2c(=O)n1-c1ccccc1` [IDELALISIB], the Kd (in [1]; in assay [2]; at dCTP pyrophosphatase 1; on ADP/ATP translocase 3; in [3]; in assay [4]) was > 30 µM (inactive) throughout. For the same molecule, the Kd in assay [5], in assay [6], in assay [7] and in assay [8] was > 30 µM (inactive) in each case.
Take `COC(=O)N[C@@H](C)CNc1nccc(-c2cn(C(C)C)nc2-c2cc(Cl)cc(NS(C)(=O)=O)c2F)n1` [ENCORAFENIB]: the Kd (in [1]; in assay [2]; at dCTP pyrophosphatase 1; at ADP/ATP translocase 3; in [3]; in assay [4]) was > 30 µM (inactive) in each case. The Kd in assay [5], in assay [6], in assay [7] and in assay [8] was > 30 µM (inactive) in each case.
Turning to `O=c1sn(-c2cccc3ccccc23)c(=O)n1Cc1ccccc1` [TIDEGLUSIB], the Kd (in [1]; in assay [2]; on dCTP pyrophosphatase 1; on ADP/ATP translocase 3; in assay [3]; in assay [4]) was > 30 µM (inactive) throughout. The Kd in assay [5], in assay [6], in assay [7] and in assay [8] was > 30 µM (inactive) throughout.
As to `Cc1ccc(S(=O)(=O)Nc2nc3ccccc3nc2Nc2ccc3nsnc3c2)cc1`, the Kd (in [1]; in assay [2]; at dCTP pyrophosphatase 1; on ADP/ATP translocase 3; in assay [3]; in [4]) was > 30 µM (inactive) throughout. Moreover, the Kd in assay [5], in [6], in assay [7] and in [8] was > 30 µM (inactive) in each case.
As for `CN(C)C(=O)c1cc2cnc(Nc3ccc(N4CCNCC4)cn3)nc2n1C1CCCC1` [RIBOCICLIB], the Kd (in [1]; in [2]; on dCTP pyrophosphatase 1; at ADP/ATP translocase 3; in [3]; in assay [4]) was > 30 µM (inactive) each time. For the same molecule, the Kd in assay [5], in assay [6], in assay [7] and in assay [8] was > 30 µM (inactive) in each case.
Turning to `O=C(Nc1ccc(-c2ccnc(Nc3ccc(N4CCOCC4)cc3)n2)cc1)C1CCCN1` (stereo not given) [XL-019], the Kd (in [1]; in assay [2]; on dCTP pyrophosphatase 1; at ADP/ATP translocase 3; in assay [3]; in [4]) was > 30 µM (inactive) throughout. For the same molecule, the Kd in assay [5], in [6], in assay [7] and in [8] was > 30 µM (inactive) in each case.
